# Columns and labels:
# [1] = target: COX-1 (Homo sapiens, UniProt P23219); test: COX-1 enzyme activity in human whole blood (A23187 stimulated, thromboxane B2 EIA); format: cell-based; design: Human blood (≈50 mL) from male or female donors who had not received any aspirin or NSAIDs for 14 days; endogenous in cells; host or cells: human whole blood from donors; conditions: for COX-1 Inhibition (% at 100 μM): test compound at 100 μM
# Method: (§1) The assay for COX-1 and COX-2 enzyme activity, in the human whole blood was performed as described in Brideau et al., Inflamm Res., 45: 68-74 (1996)). Human blood (≈50 mL) from male or female donors who had not received any aspirin or NSAIDs for 14 days was collected at two local area blood donor centers and placed in polypropylene syringes containing sodium heparin (20 units per mL blood, final concentration). The blood was transported to the laboratory on ice packs and used within 1.5 hours of collection. Upon receipt in the laboratory, the blood was allowed to come to room temperature for 15 minutes prior to distribution in 1 mL aliquots per well of 24 well tissue culture plates. The plates were then placed on a gently rotating platform shaker in a 5% CO2 incubator at 37° C. for 15 minutes. Test compounds were dissolved in DMSO, at 1000 fold the final desired concentration, and further diluted, as indicated, in DMSO. One μL of each dilution of the test compound was added per well, in duplicate wells; wells not receiving test compound (e.g., basal, background or control wells) received 1 μL DMSO.
# (§2) To induce COX-2, lipopolysaccharide (LPS) from E. coli (LPS, serotype 026:B6 or serotype 0127:B8, Sigma Chemical Co., St. Louis, Mo., Catalogue No. L3755 or L3129, respectively) was added at 10 μg/mL (2 μL of 5 mg/mL LPS in DMSO) to appropriate wells 15 minutes after the addition of the test compound. (Basal or background wells not incubated with LPS received 2 μL of DMSO.) For the stimulation of COX-1, the calcium ionophore, A23187 (free acid from Sigma Chemical Co., St. Louis, Mo., Catalogue No. C7522) was added at 25 μM (1 μL of 25 mM stock in DMSO) to separate wells 4.5 hours after the addition of the test compound. (Again, basal, background or control wells not stimulated with A23187 received 1 μL of DMSO.) At 5 hours after the addition of the test compound, all incubations were terminated by placement on ice and the addition of 2 mM EGTA (100 μL of 20 mM EGTA, tetrasodium, in PBS (phosphate buffered saline) without Ca^++ and Mg^++, pH 7.2)). The resulting solutions, were transferred by polyethylene transfer pipettes to 15 mL polypropylene centrifuge tubes and centrifuged at 1200 g for 10 minutes at 4° C. One hundred μL of plasma was removed from each blood sample and added to 1 mL of methanol in new 15 mL polypropylene centrifuge tubes, vortexed, and stored overnight at −20° C. The next day, the samples were centrifuged at 2000 g for 10 minutes at 4° C. and the supernatants transferred to glass tubes and evaporated to dryness. The samples were assayed for thromboxane B2 using EIA kits supplied by Cayman Chemical Co. (Ann Arbor, Mich., Catalogue No. 519031) in duplicate wells after reconstitution with EIA Buffer and appropriate dilution (2000 fold for COX-1 and 500 fold for Cox-2 samples).
# [2] = target: T1, COX-2 (Homo sapiens, UniProt P35354); test: COX-2 enzyme activity in human whole blood (LPS induced, thromboxane B2 EIA); format: cell-based; design: Human blood (≈50 mL) from male or female donors who had not received any aspirin or NSAIDs for 14 days; endogenous in cells; host or cells: human whole blood from donors, LPS-induced; conditions: test compound at 10 μM
# T1 sequence (P35354 18-604): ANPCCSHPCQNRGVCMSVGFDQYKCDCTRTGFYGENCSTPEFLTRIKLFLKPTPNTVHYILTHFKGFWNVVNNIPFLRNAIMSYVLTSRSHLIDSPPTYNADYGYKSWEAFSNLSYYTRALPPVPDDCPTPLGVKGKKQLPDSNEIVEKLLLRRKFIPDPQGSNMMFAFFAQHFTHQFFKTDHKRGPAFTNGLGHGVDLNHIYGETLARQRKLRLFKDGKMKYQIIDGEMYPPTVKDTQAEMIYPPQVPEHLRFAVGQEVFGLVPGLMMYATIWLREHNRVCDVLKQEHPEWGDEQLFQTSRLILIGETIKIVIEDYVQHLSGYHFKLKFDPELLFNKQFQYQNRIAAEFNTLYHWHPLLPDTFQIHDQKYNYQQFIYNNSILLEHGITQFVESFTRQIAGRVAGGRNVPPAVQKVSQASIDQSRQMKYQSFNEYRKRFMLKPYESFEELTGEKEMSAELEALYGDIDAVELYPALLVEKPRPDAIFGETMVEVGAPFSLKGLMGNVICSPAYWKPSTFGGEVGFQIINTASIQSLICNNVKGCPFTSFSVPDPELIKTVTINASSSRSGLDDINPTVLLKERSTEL
# Method: as §1, with “Human” for “The assay for COX-1 and COX-2 enzyme activity, in the human whole blood was performed as described in Brideau et al., Inflamm Res., 45: 68-74 (1996)). Human”
# as §2, with “(Basal or background wells not incubated with LPS received 2 μL of DMSO.) For the stimulation of COX-1, the calcium ionophore, A23187 (free acid from Sigma Chemical Co., St. Louis, Mo., Catalogue No. C7522) was added at 25 μM (1 μL of 25 mM stock in DMSO) to separate wells 4.5 hours after the addition of the test compound.” left out, “dryness.” for “dryness. The samples were assayed for thromboxane B2 using EIA kits supplied by Cayman Chemical Co. (Ann Arbor, Mich., Catalogue No. 519031) in duplicate wells after reconstitution with EIA Buffer and appropriate dilution (2000 fold for COX-1 and 500 fold for Cox-2 samples).”
# COX-1, sequence (P23219 24-599): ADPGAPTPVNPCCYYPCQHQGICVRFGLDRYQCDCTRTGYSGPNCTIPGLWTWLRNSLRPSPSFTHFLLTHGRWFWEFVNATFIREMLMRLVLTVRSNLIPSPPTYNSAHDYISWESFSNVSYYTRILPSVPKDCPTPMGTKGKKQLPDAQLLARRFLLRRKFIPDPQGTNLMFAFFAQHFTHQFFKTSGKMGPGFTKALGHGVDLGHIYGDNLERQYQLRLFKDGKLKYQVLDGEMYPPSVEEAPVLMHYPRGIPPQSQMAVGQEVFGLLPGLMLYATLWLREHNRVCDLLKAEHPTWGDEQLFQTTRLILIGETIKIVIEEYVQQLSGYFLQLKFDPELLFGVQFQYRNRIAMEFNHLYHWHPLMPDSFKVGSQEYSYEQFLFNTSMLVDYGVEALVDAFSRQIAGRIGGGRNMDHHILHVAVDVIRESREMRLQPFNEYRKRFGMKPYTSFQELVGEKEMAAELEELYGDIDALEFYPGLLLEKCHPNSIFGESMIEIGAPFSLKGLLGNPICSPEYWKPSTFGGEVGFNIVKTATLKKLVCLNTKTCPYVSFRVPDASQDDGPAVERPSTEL
Molecule,COX-1 Inhibition (% at 100 μM) [1] [%],COX-2 Inhibition (% at 10 μM) [2] [%],COX-1 Inhibition (% at 30 μM) ([1]; test compound at 30 μM)
"1-(7-((3,5-Difluorophenyl)methyl)-2-((nitrooxy)methyl)(2H, 3H-benzo(3,4-e)1, 4-dioxin-6-yl))-4-(methylsulfonyl)benzene and 1-(7-((3,5-difluorophenyl)methyl)-3-((nitrooxy)methyl)(2H, 3H-benzo(e)1,4-dioxin-6-yl))-4-(methylsulfonyl)benzene [Example 19b]",65,35,
"1-(7-((3,5-Difluorophenyl)methyl)-2-(hydroxymethyl)(2H, 3H-benzo(3,4-e)1,4-dioxin-6-yl))-4-(methylsulfonyl)benzene and 1-(7-((3,5-difluorophenyl)methyl)-3-(hydroxymethyl)(2H, 3H-benzo(e)1,4-dioxin-6-yl))-4-(methylsulfonyl)benzene [Example 19a]",45,15,
"CS(=O)(=O)c1ccc(-c2cc3c(cc2C(=O)C2CCCCC2)OCO3)cc1 [Example 2c, Cyclohexyl 6-(4-(methylsulfonyl)phenyl)(2H-benzo(d)1,3-dioxolan-5-yl) ketone]",,85,70 (at 30 μM) %
"CS(=O)(=O)c1ccc(-c2cc3c(cc2Cc2ccccc2)OCO3)cc1 [Example 3c, 4-(Methylsulfonyl)-1-(6-benzyl(2H-benzo(3,4-d)1,3-dioxolan-5-yl))benzene]",65,50,
"CS(=O)(=O)c1ccc(-c2cc3c(cc2Cc2ccccc2F)OCO3)cc1 [Example 4c, 1-(6-((2-Fluorophenyl)methyl)(2H-benzo(3,4-d)1,3-dioxolan-5-yl))-4-(methylsulfonyl)benzene]",70,60,
"CS(=O)(=O)c1ccc(-c2cc3c(cc2C(=O)c2ccccc2F)OCO3)cc1 [Example 4d, 2-Fluorophenyl 6-(4-(methylsulfonyl)phenyl)(2H-benzo(d)1,3-dioxolan-5-yl) ketone]",70,90,
"CS(=O)(=O)c1ccc(-c2cc3c(cc2Cc2cccc(F)c2)OCO3)cc1 [Example 5c, 1-(6-((3-Fluorophenyl)methyl)(2H-benzo(3,4-d)1,3-dioxolan-5-yl))-4-(methylsulfonyl)benzene]",55,90,
"CS(=O)(=O)c1ccc(-c2cc3c(cc2C(=O)c2cccc(F)c2)OCO3)cc1 [Example 5d, 3-Fluorophenyl 6-(4-(methylsulfonyl)phenyl)(2H-benzo(d)1,3-dioxolan-5-yl) ketone]",70,95,
"CCOC(=O)/C(C)=C/c1cc2c(cc1-c1ccc(S(C)(=O)=O)cc1)OCO2 [Example 7d, Ethyl (2E)-2-methyl-3-(6-(4-(methylsulfonyl)phenyl)(2H-benzo(d)1,3-dioxolan-5-yl))prop-2-enoate]",5,35,
"C/C(=C\c1cc2c(cc1-c1ccc(S(C)(=O)=O)cc1)OCO2)CO [Example 7e, 1-(6-((1E)-3-Hydroxy-2-methylprop-1-enyl)(2H-benzo(3,4-d)1,3-dioxolan-5-yl))-4-(methylsulfonyl)benzene]",20,10,
"CS(=O)(=O)c1ccc(-c2cc3c(cc2CC2CCCCCC2)OCO3)cc1 [Example 11c, 4-(6-(Cycloheptylmethyl)(2H-benzo(3,4-d)1,3-dioxolan-5-yl))-1-(methylsulfonyl)benzene]",40,80,
"Cc1cccc(C(=O)c2cc3c(cc2-c2ccc(S(C)(=O)=O)cc2)OCO3)c1 [Example 12c, 3-Methylphenyl 6-(4-(methylsulfonyl)phenyl)(2H-benzo(d)1,3-dioxolan-5-yl)ketone]",90,90,
"CS(=O)(=O)c1ccc(-c2cc3c(cc2C(=O)c2cccc(CO[N+](=O)[O-])c2)OCO3)cc1 [Example 12d, 6-(4-(methylsulfonyl)phenyl)(2H-benzo(d)1,3-dioxolan-5-yl)3-((nitrooxy)methyl)phenylketone]",20,20,
"COc1cccc(C(=O)c2cc3c(cc2-c2ccc(S(C)(=O)=O)cc2)OCO3)c1 [Example 13c, 3-Methoxyphenyl-6-(4-(methylsulfonyl)phenyl)(2H-benzo(d)1,3-dioxolan-5-yl) ketone]",90,75,
"Cc1ccc(F)c(C(=O)c2cc3c(cc2-c2ccc(S(C)(=O)=O)cc2)OCO3)c1 [Example 14c, 2-Fluoro-5-methylphenyl6-(4-(methylsulfonyl)phenyl)(2H-benzo(d)1,3-dioxolan-5-yl)ketone]",90,75,
"CS(=O)(=O)c1ccc(-c2cc3c(cc2C(=O)c2cc(F)cc(F)c2)OCO3)cc1 [Example 16, 4-(1-(3′,5′-Difluorophenyl)-1-oxomethyl)-1,2-methylenedioxy-5-(4-methylsulfonylphenyl)benzene]",50,100,
